Assay results from article PMC9485985 (Journal of Innate Immunity, 2021).
Peptide text beside a SMILES is read from it.

Experiments:
0.5% whole blood = settings: ref [5], [7], [11], [12], [38]; cited from earlier work
[1] = ref [11]; cited from earlier work
RAW264.7 cells = test: Uptake of TAMRA-labeled TCPs, flow cytometry; format: cell-based, murine; settings: Fig. 1d, inhibitor 30 min then 2 µM T-GKY25 1 h, n = 3-4

In the case of `CC[C@H](C)[C@H](NC(=O)[C@H](Cc1c[nH]c2ccccc12)NC(=O)[C@H](CCCCN)NC(=O)[C@H](CCCCN)NC(=O)[C@H](CC(C)C)NC(=O)[C@H](CCCNC(=N)N)NC(=O)[C@H](Cc1ccccc1)NC(=O)[C@@H](NC(=O)[C@@H](N)Cc1cnc[nH]1)C(C)C)C(=O)N[C@@H](CCC(N)=O)C(=O)N[C@@H](CCCCN)C(=O)N[C@H](C(=O)N[C@H](C(=O)N[C@@H](CC(=O)O)C(=O)N[C@@H](CCC(N)=O)C(=O)N[C@@H](Cc1ccccc1)C(=O)NCC(=O)N[C@@H](CCC(=O)O)C(=O)O)[C@@H](C)CC)C(C)C` [HVF18] (H-HVFRLKKWIQKVIDQFGE-OH), the “concentration from which hemolysis is induced” value (0.5% whole blood) is given as > 80 µM.

In the case of WFFFYYLIIGGGVVTHQQRKKKKDE [WFF25], the immunomodulatory effects [1] is given as “did not show any immunomodulatory effects”.

In the case of `CN(C)c1cccc2c(S(=O)(=O)NCCCCCN)cccc12` [dansylcadaverine, Dansylcadaverine], the “effect of inhibitor on uptake of T-GKY25” value (RAW264.7 cells) was “did not show any effect”.
